We go through 14 compounds from patent publication US20260193264A1, “BENZOYPARAZINE PYRAZINES AND THEIR USES” (FOGHORN THERAPEUTICS INC., priority 2022, published 2026).

The structures appear in SMILES notation.

The target of assay [1] is T1, HiBiT-BRM fusion protein in stable HeLa cell line (Homo sapiens, UniProt P51531).
T1 construct: expressed in transfected cells
Put plainly: HiBiT-BRM cell-based degradation assay (Nano-Glo HiBiT Lytic Detection, 24 h). Conditions: HeLa HiBiT-BRM cells; for DC50: read-out: BRM HiBit Degradation IC50; for BRM HiBit Degradation Maximum (%): top dose 30 μM. More on the design: DC50: scale not given here. Put shortly: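 Luminescence from HiBiT/LgBiT complementation after lysis reports remaining HiBiT-BRM in stable HeLa cells exposed to compound for 24 h. Dosing used 3-fold serial dilutions, 10 points, 30 μM top final concentration. DMSO and a 2 μM BRM/BRG1 degrader standard defined 0% and 100% degradation.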

The target of assay [2] is T2, HiBit-BRG1 fusion protein in stable HeLa cell line expressing HiBit-BRG1 and LgBit (Homo sapiens, UniProt P51532).
T2 construct: expressed in transfected cells
T2 sequence (P51532 whole entry, the tested form may be a part): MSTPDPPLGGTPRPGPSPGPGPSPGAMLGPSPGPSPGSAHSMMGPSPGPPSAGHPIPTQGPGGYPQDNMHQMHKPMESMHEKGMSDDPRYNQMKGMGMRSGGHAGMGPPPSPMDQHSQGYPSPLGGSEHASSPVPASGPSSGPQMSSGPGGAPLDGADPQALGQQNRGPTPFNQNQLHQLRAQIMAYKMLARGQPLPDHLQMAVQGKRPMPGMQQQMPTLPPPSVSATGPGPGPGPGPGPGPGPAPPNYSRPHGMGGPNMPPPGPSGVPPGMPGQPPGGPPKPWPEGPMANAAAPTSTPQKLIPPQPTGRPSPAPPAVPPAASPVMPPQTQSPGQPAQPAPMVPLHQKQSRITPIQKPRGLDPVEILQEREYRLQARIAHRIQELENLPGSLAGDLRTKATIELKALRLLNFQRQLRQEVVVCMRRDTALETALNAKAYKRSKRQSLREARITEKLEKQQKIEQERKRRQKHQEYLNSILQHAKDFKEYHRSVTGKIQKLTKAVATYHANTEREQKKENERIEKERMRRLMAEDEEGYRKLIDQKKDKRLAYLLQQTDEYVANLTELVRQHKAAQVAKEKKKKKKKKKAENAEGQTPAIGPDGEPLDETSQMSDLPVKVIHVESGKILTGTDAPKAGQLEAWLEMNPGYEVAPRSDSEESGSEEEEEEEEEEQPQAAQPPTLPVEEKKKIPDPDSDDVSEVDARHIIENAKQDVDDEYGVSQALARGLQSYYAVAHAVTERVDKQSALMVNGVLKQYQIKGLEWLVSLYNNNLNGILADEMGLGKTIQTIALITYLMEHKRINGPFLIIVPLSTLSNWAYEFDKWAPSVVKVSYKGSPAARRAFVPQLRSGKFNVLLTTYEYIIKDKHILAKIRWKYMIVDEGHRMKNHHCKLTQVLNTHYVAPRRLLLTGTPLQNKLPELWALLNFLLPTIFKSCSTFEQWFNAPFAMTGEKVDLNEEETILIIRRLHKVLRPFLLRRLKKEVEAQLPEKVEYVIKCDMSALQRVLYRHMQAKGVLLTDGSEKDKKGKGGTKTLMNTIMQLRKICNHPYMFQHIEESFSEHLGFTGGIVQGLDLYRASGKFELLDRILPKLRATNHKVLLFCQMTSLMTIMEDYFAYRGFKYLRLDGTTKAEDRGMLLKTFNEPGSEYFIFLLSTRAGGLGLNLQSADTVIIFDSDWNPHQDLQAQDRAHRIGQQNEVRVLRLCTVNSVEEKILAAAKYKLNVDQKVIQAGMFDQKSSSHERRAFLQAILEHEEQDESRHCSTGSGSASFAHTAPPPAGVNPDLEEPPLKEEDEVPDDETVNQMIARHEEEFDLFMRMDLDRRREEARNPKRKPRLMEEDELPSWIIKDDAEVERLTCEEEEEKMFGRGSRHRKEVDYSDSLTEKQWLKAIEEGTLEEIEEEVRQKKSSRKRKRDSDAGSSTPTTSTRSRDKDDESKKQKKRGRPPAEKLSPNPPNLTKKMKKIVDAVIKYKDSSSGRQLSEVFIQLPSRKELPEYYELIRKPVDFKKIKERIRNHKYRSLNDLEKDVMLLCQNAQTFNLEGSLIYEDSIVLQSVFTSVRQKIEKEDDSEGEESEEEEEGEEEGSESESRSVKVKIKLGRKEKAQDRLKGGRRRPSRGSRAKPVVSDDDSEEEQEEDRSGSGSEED
Put plainly: HiBiT-BRG1 cell-based degradation assay (Nano-Glo HiBiT, 24 h). The settings on record: HeLa HiBit-BRG1/LgBit cells; for Dmax: top dose 30 μM, read-out: BRG1 HiBit Degradation Maximum (%); for DC50: read-out: BRMG1 HiBit Degradation IC50. Put shortly: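 Stable HeLa line co-expressing HiBiT-BRG1 and LgBiT, compound-treated 24 h; luminescence read after Nano-Glo HiBiT lytic reagent. % degradation normalised between DMSO (high control) and 2 μM reference BRM/BRG1 degrader (low control).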

T1 sequence (P51531 whole entry, the tested form may be a part): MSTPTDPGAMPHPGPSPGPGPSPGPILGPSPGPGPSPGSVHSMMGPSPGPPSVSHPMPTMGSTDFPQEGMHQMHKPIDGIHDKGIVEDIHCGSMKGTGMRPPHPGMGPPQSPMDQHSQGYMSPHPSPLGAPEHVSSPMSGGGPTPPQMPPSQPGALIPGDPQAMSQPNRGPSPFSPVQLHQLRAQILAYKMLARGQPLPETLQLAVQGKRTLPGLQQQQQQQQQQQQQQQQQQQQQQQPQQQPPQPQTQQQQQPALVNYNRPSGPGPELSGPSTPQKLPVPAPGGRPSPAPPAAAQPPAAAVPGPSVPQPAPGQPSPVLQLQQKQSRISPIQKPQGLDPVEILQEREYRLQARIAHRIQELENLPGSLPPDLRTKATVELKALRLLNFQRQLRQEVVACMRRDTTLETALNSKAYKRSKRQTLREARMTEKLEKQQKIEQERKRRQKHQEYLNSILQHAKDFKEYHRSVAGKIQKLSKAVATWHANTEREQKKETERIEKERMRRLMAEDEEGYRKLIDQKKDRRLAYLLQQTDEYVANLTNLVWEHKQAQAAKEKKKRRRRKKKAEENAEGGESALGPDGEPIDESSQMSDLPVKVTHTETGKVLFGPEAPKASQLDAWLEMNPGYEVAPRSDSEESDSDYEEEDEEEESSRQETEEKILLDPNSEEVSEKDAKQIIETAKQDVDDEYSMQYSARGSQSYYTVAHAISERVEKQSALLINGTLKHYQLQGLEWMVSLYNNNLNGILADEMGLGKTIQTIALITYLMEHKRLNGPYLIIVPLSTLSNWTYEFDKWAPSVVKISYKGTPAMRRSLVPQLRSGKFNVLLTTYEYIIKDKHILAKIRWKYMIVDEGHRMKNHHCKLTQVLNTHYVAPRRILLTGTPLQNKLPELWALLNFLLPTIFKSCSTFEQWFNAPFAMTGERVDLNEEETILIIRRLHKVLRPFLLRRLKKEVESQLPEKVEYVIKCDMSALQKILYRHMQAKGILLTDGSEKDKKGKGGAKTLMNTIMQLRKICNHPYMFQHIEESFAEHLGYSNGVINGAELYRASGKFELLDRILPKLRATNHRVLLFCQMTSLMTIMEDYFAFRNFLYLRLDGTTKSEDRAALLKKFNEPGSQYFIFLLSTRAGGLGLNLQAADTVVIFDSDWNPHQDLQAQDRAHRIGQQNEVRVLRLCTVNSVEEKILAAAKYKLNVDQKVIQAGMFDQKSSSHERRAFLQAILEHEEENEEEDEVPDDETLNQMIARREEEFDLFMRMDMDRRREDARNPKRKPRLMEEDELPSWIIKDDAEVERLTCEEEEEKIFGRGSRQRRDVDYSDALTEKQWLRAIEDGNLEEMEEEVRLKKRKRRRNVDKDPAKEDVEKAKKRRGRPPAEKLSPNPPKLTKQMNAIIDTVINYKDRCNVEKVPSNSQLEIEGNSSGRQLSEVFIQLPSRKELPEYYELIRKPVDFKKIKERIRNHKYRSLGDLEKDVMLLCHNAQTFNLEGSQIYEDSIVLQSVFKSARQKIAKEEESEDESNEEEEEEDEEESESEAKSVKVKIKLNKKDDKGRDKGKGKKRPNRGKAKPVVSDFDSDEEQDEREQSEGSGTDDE

`Cc1ncsc1-c1ccc([C@H](C)NC(=O)[C@@H]2C[C@@H](O)CN2C(=O)[C@@H](c2cc(N3CC4(CC(c5cc6nnc(-c7ccccc7O)cc6cc5C#N)C4)C3)no2)C(C)C)cc1` [Compound 222, (2S,4R)-1-((R)-2-(3-(6-(6-cyano-3-(2-hydroxyphenyl)cinnolin-7-yl)-2-azaspiro[3.3]heptan-2-yl)isoxazol-5-yl)-3-methylbutanoyl)-4-hydroxy-N-((S)-1-(4-(4-methylthiazol-5-yl)phenyl)ethyl)pyrrolidine-2-carboxamide]: in assay [1], the DC50 was < 0.01 µM and the “BRM HiBit Degradation Maximum (%)” value is reported as “A (“A” indicates maximum degradation ≥75%)”. Moreover, the Dmax in assay [2] was < 50%.
For the compound `Cc1ncsc1-c1ccc([C@H](C)NC(=O)[C@@H]2C[C@@H](O)CN2C(=O)[C@@H](c2cc(N3CC4(CN(c5ccc6cc(-c7ccccc7O)nnc6c5)C4)C3)n(C)n2)C(C)C)cc1` (single isomer, unassigned) [Compound 194], in assay [1], the DC50 is > 0.1 µM and the “BRM HiBit Degradation Maximum (%)” value is on record as “A (“A” indicates maximum degradation ≥75%)”. For the same compound, the Dmax in assay [2] was < 50%.
For `Cc1ncsc1-c1ccc([C@H](C)NC(=O)[C@@H]2C[C@@H](O)CN2C(=O)[C@@H](c2cc(-c3cnc(N4CC(c5ccc6cc(-c7ccccc7O)nnc6c5)C4)nc3)no2)C(C)C)cc1` [Compound 11, (2S,4R)-4-hydroxy-1-[(2R)-2-[3-(2-{3-[3-(2-hydroxyphenyl)cinnolin-7-yl]azetidin-1-yl}pyrimidin-5-yl)-1,2-oxazol-5-yl]-3-methylbutanoyl]-N-[(1S)-1-[4-(4-methyl-1,3-thiazol-5-yl)phenyl]ethyl]pyrrolidine-2-carboxamide], in assay [1], the DC50 is < 0.01 µM and the “BRM HiBit Degradation Maximum (%)” value was “A (“A” indicates maximum degradation ≥75%)”. The Dmax in assay [2] is < 50%.
As to `Cc1ncsc1-c1ccc([C@H](C)NC(=O)[C@@H]2C[C@@H](O)CN2C(=O)[C@@H](c2cc(N3CC[C@@H](c4ccc5cc(-c6ccccc6O)nnc5c4)C3)no2)C(C)C)cc1` [Compound 58, (2S,4R)-4-hydroxy-1-((R)-2-(3-((S)-3-(3-(2-hydroxyphenyl)cinnolin-7-yl)pyrrolidin-1-yl)isoxazol-5-yl)-3-methylbutanoyl)-N-((S)-1-(4-(4-methylthiazol-5-yl)phenyl)ethyl)pyrrolidine-2-carboxamide], in assay [1], the DC50 was < 0.01 µM and the “BRM HiBit Degradation Maximum (%)” value is “A (“A” indicates maximum degradation ≥75%)”. Moreover, the Dmax in assay [2] was < 50%.
As for `C#Cc1ccc(CNC(=O)[C@@H]2C[C@@H](O)CN2C(=O)[C@H](C(C)C)n2cc(N3CC4(CN(c5ccc6cc(-c7ccccc7O)nnc6c5)C4)C3)nn2)c(Cl)c1` [Compound 223, (2S,4R)—N-[(2-chloro-4-ethynylphenyl)methyl]-4-hydroxy-1-[(2S)-2-(4-{6-[3-(2-hydroxyphenyl)cinnolin-7-yl]-2,6-diazaspiro[3.3]heptan-2-yl}-1,2,3-triazol-1-yl)-3-methylbutanoyl]pyrrolidine-2-carboxamide], in assay [1], the DC50 was < 0.01 µM and the “BRM HiBit Degradation Maximum (%)” value is “A (“A” indicates maximum degradation ≥75%)”. Besides, the Dmax in assay [2] is > 50%.
For the compound `C#Cc1cc2cc(-c3ccccc3O)nnc2cc1N1CC2(CN(c3cc([C@H](C(=O)N4C[C@H](O)C[C@H]4C(=O)N[C@@H](C)c4ccc(-c5scnc5C)cc4)C(C)C)on3)C2)C1` [Compound 239, (2S,4R)-1-((R)-2-(3-(6-(6-ethynyl-3-(2-hydroxyphenyl)cinnolin-7-yl)-2,6-diazaspiro[3.3]heptan-2-yl)isoxazol-5-yl)-3-methylbutanoyl)-4-hydroxy-N-((S)-1-(4-(4-methylthiazol-5-yl)phenyl)ethyl)pyrrolidine-2-carboxamide], in assay [1], the DC50 is < 0.01 µM and the “BRM HiBit Degradation Maximum (%)” value is recorded as “A (“A” indicates maximum degradation ≥75%)”. In assay [2], the DC50 was > 0.01 µM and the Dmax is > 50%.
For `Cc1ncsc1-c1ccc([C@H](C)NC(=O)[C@@H]2C[C@@H](O)CN2C(=O)C(C(C)C)n2cc(N3CCC4(CC3)CN(c3ccc5cc(-c6ccccc6O)nnc5c3)C4)nn2)cc1` (stereo partly drawn) [Compound 197, (2S,4R)-4-hydroxy-1-(2-(4-(2-(3-(2-hydroxyphenyl)cinnolin-7-yl)-2,7-diazaspiro[3.5]nonan-7-yl)-1H-1,2,3-triazol-1-yl)-3-methylbutanoyl)-N-((S)-1-(4-(4-methylthiazol-5-yl)phenyl)ethyl)pyrrolidine-2-carboxamide], in assay [1], the DC50 was < 0.01 µM and the “BRM HiBit Degradation Maximum (%)” value is “A (“A” indicates maximum degradation ≥75%)”. Also, in assay [2], the DC50 is < 0.01 µM and the Dmax is > 75%.
For the compound `CC(C)[C@@H](C(=O)N1C[C@H](O)C[C@H]1C(=O)N[C@@H](C)c1ccccc1)c1cc(N2CC3(CN(c4ccc5cc(-c6ccccc6O)nnc5c4)C3)C2)no1` [Compound 85, (2S,4R)-4-hydroxy-1-((R)-2-(3-(6-(3-(2-hydroxyphenyl)cinnolin-7-yl)-2,6-diazaspiro[3.3]heptan-2-yl)isoxazol-5-yl)-3-methylbutanoyl)-N-((S)-1-phenylethyl)pyrrolidine-2-carboxamide], in assay [1], the DC50 is < 0.01 µM and the “BRM HiBit Degradation Maximum (%)” value is “A (“A” indicates maximum degradation ≥75%)”. For the same compound, in assay [2], the Dmax was < 50%.
With `Cc1ncsc1-c1ccc([C@H](C)NC(=O)[C@@H]2C[C@@H](O)CN2C(=O)[C@@H](c2cc(N3CCC4(CCC(c5ccc6cc(-c7ccccc7O)nnc6c5)CC4)CC3)no2)C(C)C)cc1` [Compound 96, (2S,4R)-4-hydroxy-1-((R)-2-(3-(9-(3-(2-hydroxyphenyl)cinnolin-7-yl)-3-azaspiro[5.5]undecan-3-yl)isoxazol-5-yl)-3-methylbutanoyl)-N-((S)-1-(4-(4-methylthiazol-5-yl)phenyl)ethyl)pyrrolidine-2-carboxamide], in assay [1], the DC50 is < 0.01 µM and the “BRM HiBit Degradation Maximum (%)” value is given as “A (“A” indicates maximum degradation ≥75%)”. In assay [2], the DC50 is > 0.01 µM and the Dmax is > 75%.
Consider `Cc1ncsc1-c1ccc([C@H](C)NC(=O)[C@@H]2C[C@@H](O)CN2C(=O)[C@@H](c2cc(N3CCC4(CC3)CC(c3ccc5cc(-c6cccc(F)c6O)nnc5c3)C4)no2)C(C)C)cc1` [Compound 94, (2S,4R)-1-((R)-2-(3-(2-(3-(3-fluoro-2-hydroxyphenyl)cinnolin-7-yl)-7-azaspiro[3.5]nonan-7-yl)isoxazol-5-yl)-3-methylbutanoyl)-4-hydroxy-N-((S)-1-(4-(4-methylthiazol-5-yl)phenyl)ethyl)pyrrolidine-2-carboxamide], for which, in assay [1], the DC50 was < 0.01 µM and the “BRM HiBit Degradation Maximum (%)” value was “A (“A” indicates maximum degradation ≥75%)”. For the same compound, in assay [2], the Dmax was < 50%.
As to `Cc1ncsc1-c1ccc([C@H](C)NC(=O)[C@@H]2C[C@@H](O)CN2C(=O)C(c2cc(N3CCC4(CCC(c5ccc6nnc(-c7ccccc7O)cc6c5)CC4)CC3)no2)C(C)C)cc1` (stereo in doubt) [Compound 63, (2S,4R)-4-hydroxy-1-((S)-2-(3-(9-(3-(2-hydroxyphenyl)cinnolin-6-yl)-3-azaspiro[5.5]undecan-3-yl)isoxazol-5-yl)-3-methylbutanoyl)-N-((S)-1-(4-(4-methylthiazol-5-yl)phenyl)ethyl)pyrrolidine-2-carboxamide], in assay [1], the DC50 is < 0.01 µM and the “BRM HiBit Degradation Maximum (%)” value was “A (“A” indicates maximum degradation ≥75%)”. In assay [2], the DC50 is < 0.01 µM and the Dmax was > 75%.
With `Cc1ncsc1-c1ccc([C@@H](C)NC(=O)[C@H]2C[C@H](O)CN2C(=O)[C@H](C(C)C)n2cc(N3CC4(CN(c5ccc6nnc(-c7ccccc7O)cc6c5)C4)C3)cn2)cc1` [Compound 258, (2R,4S)-4-hydroxy-1-[(2S)-2-(4-{6-[3-(2-hydroxyphenyl)cinnolin-6-yl]-2,6-diazaspiro[3.3]heptan-2-yl}pyrazol-1-yl)-3-methylbutanoyl]-N-[(1R)-1-[4-(4-methyl-1,3-thiazol-5-yl)phenyl]ethyl]pyrrolidine-2-carboxamide], in assay [1], the DC50 was > 0.01 µM and the “BRM HiBit Degradation Maximum (%)” value was “A (“A” indicates maximum degradation ≥75%)”. In assay [2], the DC50 is > 0.01 µM and the Dmax is > 50%.
Consider `C#Cc1ccc([C@H](C)NC(=O)[C@@H]2C[C@@H](O)CN2C(=O)[C@@H](c2cc(N3CC4(CN(c5ccc6cc(-c7ccccc7O)nnc6c5)C4)C3)no2)C(C)C)c(Cl)c1` [Compound 284], for which, in assay [1], the DC50 was < 0.01 µM and the “BRM HiBit Degradation Maximum (%)” value is reported as “A (“A” indicates maximum degradation ≥75%)”. The Dmax in assay [2] is < 50%.
Consider `Cc1ncsc1-c1ccc([C@H](C)NC(=O)[C@@H]2C[C@@H](O)CN2C(=O)[C@@H](c2cc(N3CC4(C3)CN(c3cc5nnc(-c6ccccc6O)cc5cc3N(C)C)C4)no2)C(C)C)cc1` [Compound 207, (2S,4R)-1-((R)-2-(3-(6-(6-(dimethylamino)-3-(2-hydroxyphenyl)cinnolin-7-yl)-2,6-diazaspiro[3.3]heptan-2-yl)isoxazol-5-yl)-3-methylbutanoyl)-4-hydroxy-N-((S)-1-(4-(4-methylthiazol-5-yl)phenyl)ethyl)pyrrolidine-2-carboxamide], for which, in assay [1], the DC50 was < 0.01 µM and the “BRM HiBit Degradation Maximum (%)” value is “A (“A” indicates maximum degradation ≥75%)”. In addition, in assay [2], the DC50 was < 0.01 µM and the Dmax is > 75%.
